Results reported in patent publication US12496297B1, “Compositions of autophagy modulating agents and uses thereof” (Washington University, priority 2020, dated 2025).

Tested on: α1-antitrypsin Z variant (ATZ)
Assay: Steady state levels of ATZ in HTO/Z cell line (immunoblot); activity of G2 analogs
Format: cell-based, human
Conditions: for Activity: G2 and G2 analogs, positive activity if shown to have any activity, not quantified; for IC50: TABLE 1, assay not given
Method: For experiments with G2 analogs, Tet-off inducible cell lines were cultured in absence of doxycycline for at least 12 days to ensure expression of […] or its variants. The cells were then sub-cultured into separate monolayers in fresh complete growth medium and incubated for 48 hours in the absence or presence of G2 analog. […] All compounds available commercially were purchased except for G2-22, which was synthesized with routine chemistry.
Cells were lysed in NP40 buffer and then separated into insoluble and soluble fractions according to a previously established technique. Samples were subjected to immunoblot analysis for AT and GAPDH. For immmunoblot analysis to detect AT or GAPDH, cells were lysed in 50 mM Tris-HCl, 150 mM NaCl, 1% NP-40, pH 8.0. Protein concentrations were determined by BCA protein assay (Pierce Biotechnology, Rockford, IL). […] The membranes were blocked in 5% milk and then incubated overnight at 4° C. with primary antibody for AT (1:1000, Diasorin), LC3 (1:2000, Sigma), p62 (1:1000, Cell signaling, Danvers, MA), ATG5 (1:1000, Cell signaling), mTOR substrate sampler (1:1000 for all antibodies, Cell signaling). Donkey anti-goat Ig (Jackson Labs, Bar Harbor, ME), goat anti-rabbit lg (1:50,000), or goat anti-mouse Ig (1:50,000) were used as secondary antibodies in TBST at RT, 1 hour. Blots were visualized with ECL or West Femto from Pierce. Membranes were re-probed with GAPDH (1:5000, Sigma) as loading control. Insoluble samples were stained with Gel Code Blue as loading control.

Row | IC50 [nM] | Compound | Activity | effect on cellular ATZ levels (48 hrs incubation, immunoblot, FIG. 8 / FIG. 14)
1 |  | CNC(=O)c1cc(Cl)ccc1OC [G2-3, 5-chloro-2-methoxy-N-methylbenzamide] | Active | 
2 |  | CNC(=O)c1cc(F)ccc1OC [G2-4, 5-fluoro-2-methoxy-N-methylbenzamide] | Inactive | 
3 |  | NC(=O)c1cc(Cl)ccc1OC(F)(F)F [G2-6, 5-chloro-2-(trifluoromethoxy)benzamide] | Inactive | 
4 |  | CN1CCNC(=O)c2cc(Cl)ccc21 [G2-11, 7-chloro-1-methyl-1,2,3,4-tetrahydro-5H-benzo[e][1,4]diazepin-5-one] | Inactive | 
5 |  | CNC(=O)c1cc(Cl)ccc1OC1CC1 [G2-12, 5-chloro-2-cyclopropoxy-N-methylbenzamide] | Active | 
6 |  | CNC(=O)c1cc(Cl)ccc1OC1CCN(C2CCCC2)CC1 [G2-12-2, 5-chloro-2-((1-cyclopentylpiperidin-4-yl)oxy)-N-methylbenzamide] | Inactive | 
7 |  | CNC(=O)c1cc(Cl)ccc1OCc1ccccc1 [G2-12-3, 2-(benzyloxy)-5-chloro-N-methylbenzamide] | Inactive | 
8 |  | COc1ccc(Cl)cc1C(=O)N(C)C [G2-13, 5-chloro-2-methoxy-N,N-dimethylbenzamide] | Active | 
9 |  | COc1ccc(Cl)cc1C(=O)NCC(C)C [G2-14, 5-chloro-N-isobutyl-2-methoxybenzamide] | Inactive | 
10 |  | COc1ccc(Cl)cc1C(=O)NCCCCO [G2-15, 5-chloro-N-(4-hydroxybutyl)-2-methoxybenzamide] | Inactive | 
11 |  | CNC(=O)c1cc(Cl)ccc1Oc1ccc(Cl)cc1 [G2-16, 5-chloro-2-(4-chlorophenoxy)-N-methylbenzamide] | Inactive | 
12 |  | CNC(=O)c1cc(Cl)ccc1OCCC(C)C [G2-17, 5-chloro-2-(isopentyloxy)-N-methylbenzamide] | Inactive | 
13 |  | Cn1ccc2c(Cl)cccc2c1=O [G2-22, 5-chloro-2-methylisoquinolin-1(2H)-one] | Active | 
14 |  | Cn1ccc2ccc(Cl)cc2c1=O [G2-23, 7-chloro-2-methylisoquinolin-1(2H)-one] | Inactive | 
15 |  | Cn1ccc2cccc(Cl)c2c1=O [G2-24, 8-chloro-2-methylisoquinolin-1(2H)-one] | Inactive | 
16 |  | O=c1[nH]ccc2cc(Cl)ccc12 [G2-25, 6-chloroisoquinolin-1(2H)-one] | Active | 
17 |  | Cn1cnc2cc(Cl)ccc2c1=O [G2-27, 7-chloro-3-methylquinazolin-4(3H)-one] | Inactive | 
18 |  | CN1Cc2cc(Cl)ccc2C1=O [G2-28, 5-chloro-2-methylisoindolin-1-one] | Active | 
19 |  | Cn1ccc2cc(S(C)(=O)=O)ccc2c1=O [G2-29, 2-methyl-6-(methylsulfonyl)isoquinolin-1(2H)-one] | Active | 
20 |  | COc1ccc2c(=O)n(C)ccc2c1 [G2-30, 6-methoxy-2-methylisoquinolin-1(2H)-one] | Active | 

Row | IC50 [nM] | Compound | Activity | effect on cellular ATZ levels (48 hrs incubation, immunoblot, FIG. 8 / FIG. 14)
21 |  | Cn1ccc2cc(C#N)ccc2c1=O [G2-31, 2-methyl-1-oxo-1,2-dihydroisoquinoline-6-carbonitrile] | Inactive | 
22 |  | Cn1ccc2ccccc2c1=O [G2-34, 2-methylisoquinolin-1(2H)-one] | Inactive | 
23 |  | Cn1c(=O)ccc2cc(Cl)ccc21 [G2-37, 6-chloro-1-methylquinolin-2(1H)-one] | Active | 
24 |  | Cc1cn(C)c(=O)c2ccc(Cl)cc12 [G2-38, 6-chloro-2,4-dimethylisoquinolin-1(2H)-one] | Inactive | 
25 |  | Cn1ccc2cc(-c3ccccn3)ccc2c1=O [G2-39, 2-methyl-6-(pyridin-2-yl)isoquinolin-1(2H)-one] | Inactive | 
26 |  | CNC(=O)c1cccc(Cl)c1OC [G2-40, 3-chloro-2-methoxy-N-methylbenzamide] | Inactive | 
27 |  | Cn1ccc2cc(-c3ccccc3)ccc2c1=O [G2-41, 2-methyl-6-phenylisoquinolin-1(2H)-one] | Active | 
28 |  | Cn1ccc2cc(-c3ccncc3)ccc2c1=O [G2-42, 2-methyl-6-(pyridin-4-yl)isoquinolin-1(2H)-one] | Active | 
29 |  | Cn1ccc2cc(-c3cccnc3)ccc2c1=O [G2-43, 2-methyl-6-(pyridin-3-yl)isoquinolin-1(2H)-one] | Inactive | 
30 |  | CN(C)c1ccc2c(=O)n(C)ccc2c1 [G2-44, 6-(dimethylamino)-2-methylisoquinolin-1(2H)-one] | Inactive | 
31 |  | Cn1ccc2cc(N3CCCC3)ccc2c1=O [G2-45, 2-methyl-6-(pyrrolidin-1-yl)isoquinolin-1(2H)-one] | Active | 
32 |  | Cn1ccc2cc(N3CC4(COC4)C3)ccc2c1=O [G2-46, 2-methyl-6-(2-oxa-6-azaspiro[3.3]heptan-6-yl)isoquinolin-1(2H)-one] | Inactive | 
33 |  | Cn1ccc2cc(Nc3ccccc3)ccc2c1=O [G2-47, 2-methyl-6-(phenylamino)isoquinolin-1(2H)-one] | Inactive | 
34 |  | CN(c1ccccc1)c1ccc2c(=O)n(C)ccc2c1 [G2-48, 2-methyl-6-(methyl(phenyl)amino)isoquinolin-1(2H)-one] | Active | 
35 |  | Cn1ccc2cc(Nc3ccccn3)ccc2c1=O [G2-49, 2-methyl-6-(pyridin-2-ylamino)isoquinolin-1(2H)-one] | Inactive | 
36 |  | Cn1ncc2cc(Cl)ccc2c1=O [G2-51, 6-chloro-2-methylphthalazin-1(2H)-one] | Active | 
37 |  | CCn1ccc2cc(Cl)ccc2c1=O [G2-52, 6-chloro-2-ethylisoquinolin-1(2H)-one] | Inactive | 
38 |  | O=c1c2ccc(Cl)cc2ccn1-c1ccccc1 [G2-53, 6-chloro-2-phenylisoquinolin-1(2H)-one] | Inactive | 
39 |  | Cn1c(=O)ccc2ccc(Cl)cc21 [G2-54, 7-chloro-1-methylquinolin-2(1H)-one] | Active (Highly Active) | 
40 |  | CNC(=O)c1ccc(Cl)cc1OC [G2-55, 4-chloro-2-methoxy-N-methylbenzamide] | Inactive | 

Row | IC50 [nM] | Compound | Activity | effect on cellular ATZ levels (48 hrs incubation, immunoblot, FIG. 8 / FIG. 14)
41 |  | Cn1c(=O)ccc2cc(Cl)ccc21 [G2-58, 6-chloro-1-methylquinolin-2(1H)-one] | Inactive | 
42 |  | Cn1ccc2cc(-c3ncccn3)ccc2c1=O [G2-59, 2-methyl-6-(pyrimidin-2-yl)isoquinolin-1(2H)-one] | Inactive | 
43 |  | CCCCc1ccc2c(=O)n(C)ccc2c1 [G2-60, 6-butyl-2-methylisoquinolin-1(2H)-one] | Inactive | 
44 |  | Cn1ccc2cc(N3CCCCC3)ccc2c1=O [G2-61, 2-methyl-6-(piperidin-1-yl)isoquinolin-1(2H)-one] | Inactive | 
45 |  | Cn1ccc2cc(N3CCC(c4ccccc4)CC3)ccc2c1=O [G2-62, 2-methyl-6-(4-phenylpiperidin-1-yl)isoquinolin-1(2H)-one] | Inactive | 
46 |  | Cn1ccc2cc(-c3ccc(Cl)cc3)ccc2c1=O [G2-63, 6-(4-chlorophenyl)-2-methylisoquinolin-1(2H)-one] | Inactive | 
47 |  | Cn1ccc2cc(-c3ccn[nH]3)ccc2c1=O [G2-65, 2-methyl-6-(1H-pyrazol-5-yl)isoquinolin-1(2H)-one] | Inactive | 
48 |  | Cn1ccc2cc(S(N)(=O)=O)ccc2c1=O [G2-67, 2-methyl-1-oxo-1,2-dihydroisoquinoline-6-sulfonamide] | Inactive | 
49 | 100 to 1000 | O=c1ccc2ccc(Cl)cc2[nH]1 [G2-69, 7-chloroquinolin-2(1H)-one] | Active (Most Highly Active) | 
50 |  | O=c1ncc2cc(Cl)ccc2[nH]1 [G2-71, 6-chloroquinazolin-2(1H)-one] | Inactive | 
51 |  | Cn1c(=O)ccc2ccc(-c3cccnc3)cc21 [G2-83, 1-methyl-7-(pyridin-3-yl)quinolin-2(1H)-one] | Inactive | 
52 |  | Cn1c(=O)ccc2ccc(Nc3ccccn3)cc21 [G2-91, 1-methyl-7-(pyridin-2-ylamino)quinolin-2(1H)-one] | Inactive | 
53 | 1000 to 10000 | O=c1ccc2ccc(F)cc2[nH]1 [G2-124, 7-fluoroquinolin-2(1H)-one] | Active | 
54 | 1000 to 10000 | O=c1ccc2ccc(C3CC3)cc2[nH]1 [G2-156, 7-cyclopropylquinolin-2(1H)-one] | Active | 
55 | 1000 to 10000 | O=c1ccc2c(N3CCCCC3)cc(Cl)cc2[nH]1 [G2-195, 7-chloro-5-(piperidin-1-yl)quinolin-2(1H)-one] | Active | 
56 | 1000 to 10000 | O=c1ccc2c(-c3ccccc3)cc(Cl)cc2[nH]1 [G2-196, 7-chloro-5-phenylquinolin-2(1H)-one] | Active | 
57 | 1000 to 10000 | O=c1ccc2c(-c3ncccn3)cc(Cl)cc2[nH]1 [G2-197, 7-chloro-5-(pyrimidin-2-yl)quinolin-2(1H)-one] | Active | 
58 | 100 to 1000 | CCCCCCOc1cc(Cl)cc2[nH]c(=O)ccc12 [G2-218, 7-chloro-5-(hexyloxy)quinolin-2(1H)-one] | Active | reduce ATZ levels in a dose-dependent manner
